Experimental data published in the CheMixHub viscosity set.

Assay: xn = mol fraction of the nth substance listed

[Ca+2].[Cl-].[Cl-] + O
Conditions | viscosity [mPa·s]
293.15 K, 101 kPa, x1 = 0.059 | 2.97
298.15 K, 101 kPa, x1 = 0.000396 | 0.8977
298.15 K, 101 kPa, x1 = 0.00043 | 0.8982
298.15 K, 101 kPa, x1 = 0.00081 | 0.9042
298.15 K, 101 kPa, x1 = 0.000844 | 0.9046
298.15 K, 101 kPa, x1 = 0.00106 | 0.9082
298.15 K, 101 kPa, x1 = 0.00107 | 0.9081
298.15 K, 101 kPa, x1 = 0.00123 | 0.9106
298.15 K, 101 kPa, x1 = 0.0013 | 0.9117
298.15 K, 101 kPa, x1 = 0.00147 | 0.9145
298.15 K, 101 kPa, x1 = 0.00151 | 0.9149
298.15 K, 101 kPa, x1 = 0.00175 | 0.9186
298.15 K, 101 kPa, x1 = 0.002367 | 0.9277
298.15 K, 101 kPa, x1 = 0.002527 | 0.9302
298.15 K, 101 kPa, x1 = 0.002586 | 0.9311
298.15 K, 101 kPa, x1 = 0.003329 | 0.9425
298.15 K, 101 kPa, x1 = 0.003395 | 0.9435
298.15 K, 101 kPa, x1 = 0.003497 | 0.945
298.15 K, 101 kPa, x1 = 0.003672 | 0.9476
298.15 K, 101 kPa, x1 = 0.004546 | 0.9609
298.15 K, 101 kPa, x1 = 0.004721 | 0.9637
298.15 K, 101 kPa, x1 = 0.005244 | 0.9719
298.15 K, 101 kPa, x1 = 0.006244 | 0.9873
298.15 K, 101 kPa, x1 = 0.007041 | 1
298.15 K, 101 kPa, x1 = 0.007167 | 1.002
298.15 K, 101 kPa, x1 = 0.007446 | 1.006
298.15 K, 101 kPa, x1 = 0.008695 | 1.027
298.15 K, 101 kPa, x1 = 0.009449 | 1.039
298.15 K, 101 kPa, x1 = 0.009885 | 1.046
298.15 K, 101 kPa, x1 = 0.01022 | 1.052
298.15 K, 101 kPa, x1 = 0.01042 | 1.055
298.15 K, 101 kPa, x1 = 0.01059 | 1.058
298.15 K, 101 kPa, x1 = 0.01077 | 1.061
298.15 K, 101 kPa, x1 = 0.01094 | 1.064
298.15 K, 101 kPa, x1 = 0.01192 | 1.081
298.15 K, 101 kPa, x1 = 0.01272 | 1.095
298.15 K, 101 kPa, x1 = 0.01378 | 1.114
298.15 K, 101 kPa, x1 = 0.01401 | 1.118
298.15 K, 101 kPa, x1 = 0.01513 | 1.139
298.15 K, 101 kPa, x1 = 0.01538 | 1.143
298.15 K, 101 kPa, x1 = 0.01928 | 1.219
298.15 K, 101 kPa, x1 = 0.02043 | 1.243
298.15 K, 101 kPa, x1 = 0.02048 | 1.244
298.15 K, 101 kPa, x1 = 0.02097 | 1.254
298.15 K, 101 kPa, x1 = 0.02327 | 1.304
298.15 K, 101 kPa, x1 = 0.02529 | 1.35
298.15 K, 101 kPa, x1 = 0.02589 | 1.364
298.15 K, 101 kPa, x1 = 0.0267 | 1.383
298.15 K, 101 kPa, x1 = 0.027 | 1.391
298.15 K, 101 kPa, x1 = 0.02942 | 1.451
298.15 K, 101 kPa, x1 = 0.02988 | 1.464
298.15 K, 101 kPa, x1 = 0.03066 | 1.484
298.15 K, 101 kPa, x1 = 0.03069 | 1.485
298.15 K, 101 kPa, x1 = 0.0311 | 1.496
298.15 K, 101 kPa, x1 = 0.03274 | 1.541
298.15 K, 101 kPa, x1 = 0.03315 | 1.553
298.15 K, 101 kPa, x1 = 0.03378 | 1.572
298.15 K, 101 kPa, x1 = 0.03442 | 1.59
298.15 K, 101 kPa, x1 = 0.03633 | 1.648
298.15 K, 101 kPa, x1 = 0.03656 | 1.654
298.15 K, 101 kPa, x1 = 0.03673 | 1.66
298.15 K, 101 kPa, x1 = 0.03831 | 1.711
298.15 K, 101 kPa, x1 = 0.03856 | 1.719
298.15 K, 101 kPa, x1 = 0.04162 | 1.824
298.15 K, 101 kPa, x1 = 0.04322 | 1.883
298.15 K, 101 kPa, x1 = 0.04455 | 1.933
298.15 K, 101 kPa, x1 = 0.04537 | 1.967
298.15 K, 101 kPa, x1 = 0.04781 | 2.068
298.15 K, 101 kPa, x1 = 0.04866 | 2.105
298.15 K, 101 kPa, x1 = 0.0498 | 2.157
298.15 K, 101 kPa, x1 = 0.0506 | 2.194
298.15 K, 101 kPa, x1 = 0.0536 | 2.342
298.15 K, 101 kPa, x1 = 0.05494 | 2.412
298.15 K, 101 kPa, x1 = 0.05842 | 2.611
298.15 K, 101 kPa, x1 = 0.06081 | 2.761
298.15 K, 101 kPa, x1 = 0.06128 | 2.791
298.15 K, 101 kPa, x1 = 0.065 | 3.054
298.15 K, 101 kPa, x1 = 0.06579 | 3.114
298.15 K, 101 kPa, x1 = 0.06654 | 3.173
298.15 K, 101 kPa, x1 = 0.06668 | 3.182
298.15 K, 101 kPa, x1 = 0.07055 | 3.515
298.15 K, 101 kPa, x1 = 0.07902 | 4.414
298.15 K, 101 kPa, x1 = 0.08019 | 4.563
298.15 K, 101 kPa, x1 = 0.08048 | 4.6
298.15 K, 101 kPa, x1 = 0.08806 | 5.733
298.15 K, 101 kPa, x1 = 0.08818 | 5.754
298.15 K, 101 kPa, x1 = 0.09192 | 6.437
298.15 K, 101 kPa, x1 = 0.09327 | 6.707
298.15 K, 101 kPa, x1 = 0.09562 | 7.209
298.15 K, 101 kPa, x1 = 0.09975 | 8.198
298.15 K, 101 kPa, x1 = 0.1012 | 8.586
298.15 K, 101 kPa, x1 = 0.1071 | 10.34
298.15 K, 101 kPa, x1 = 0.1099 | 11.29
298.15 K, 101 kPa, x1 = 0.1131 | 12.5
298.15 K, 101 kPa, x1 = 0.1167 | 14.03
298.15 K, 101 kPa, x1 = 0.1168 | 14.08
298.15 K, 101 kPa, x1 = 0.1185 | 14.84
298.15 K, 101 kPa, x1 = 0.1243 | 17.82
298.15 K, 101.3 kPa, x1 = 0.03478 | 1.609
298.15 K, 101.3 kPa, x1 = 0.05127 | 2.238
